Measurements: US20210308207A1, “COMPOUNDS COMPRISING A LINKER FOR INCREASING TRANSCYCLOOCTENE STABILITY” (Tagworks Pharmaceuticals B.V., priority 2018, published 2021)
Where a SMILES comes first, the peptide text is derived from it. [ ]: non-standard residue; d: D form. The star is where a group is joined. Dolaproine = CO[C@@H]([C@@H]1CCCN1)[C@@H](C)C(=O)O; Dil = CC[C@H](C)[C@H](NC)[C@@H](CC(=O)O)OC; X1 = C[C@@H](N*)[C@@H](O)c1ccccc1; NMeV = CN[C@H](C(=O)O)C(C)C

What follows are compounds tested on NIH:OVCAR-3 cells (assay: Cell proliferation (MTT) assay, NIH:OVCAR-3). Settings: NIH:OVCAR-3, 72 h.
Type: cell-based, human
Experimental: (§1) The human colon cancer LS174T cell line was cultured in RPMI-1640 medium supplemented with 2 mM glutamine and 10% heat inactivated fetal calf serum. The human ovary carcinoma NIH:OVCAR-3 cell line was cultured in RPMI-1640 medium supplemented with 1 mM sodium pyruvate, 10 mM HEPES, 2 mM glutamine, 10 pg/mL bovine insulin and 20% fetal calf serum. The LS174T and NIH:OVCAR-3 cells were plated in 96-well plates at a 5000 cells/well density 24 h prior to the experiment. […] After 72 h incubation at 37° C., cell proliferation was assessed by an MTT assay. The proliferation assay was performed in triplicate.
Compound CC[C@H](C)[C@@H]([C@@H](CC(=O)N1CCC[C@H]1[C@H](OC)[C@@H](C)C(=O)N[C@H](C)[C@@H](O)c1ccccc1)OC)N(C)C(=O)[C@@H](NC(=O)[C@@H](NC)C(C)C)C(C)C [MMAE, Monomethyl auristatin E] (H-[NMeV]V[Dil][Dolaproine]-X1) has an EC50 of 0.039 nM.

Each compound was assayed on AVP0458-TCO-MMAE (assay: Tetrazine-induced MMAE release from diabody ADC (LC-SIM-MS, D8-MMAE standard)). Settings: 37° C., 24 h, PBS/plasma (1/1), 10 equiv of tetrazine.
Experimental: MMAE release from diabody ADC (AVP0458-TCO-MMAE) was determined by using a deuterated internal standard D8-MMAE. ADC (1.1×10^−10 moles bound MMAE) and D8-MMAE (1.1×10^−10 moles) and 10 equiv of tetrazine were incubated in 100 uL PBS/plasma (1/1) at 37° C. […] After vortexing, 10 min standing at −20° C. and centrifugation, the supernatants were separated from the protein pellets, diluted with five parts of PBS and the ratio MMAE/D8-MMAE was measured with LC-SIM-MS, affording the release yields (Table 3).
In the case of Cc1nnc(C)nn1 [Compound 2.1, 3,6-dimethyl-1,2,4,5-tetrazine], the “release (%), induced MMAE release from AVP0458-TCO-MMAE” value (“release (%), induced MMAE release” below) is reported as 95 ± 0.4%.
For Cc1nnc(-c2ccc(NC(=O)CCCC(=O)NCCOCCOCCOCCOCCOCCOCCOCCOCCOCCOCCOCCNC(=O)CN3CCN(CC(=O)O)CCN(CC(=O)O)CCN(CC(=O)O)CC3)cn2)nn1 [Compound 3.4, 2,2′,2″-(10-(44-((6-(6-methyl-1,2,4,5-tetrazin-3-yl)pyridin-3-yl)amino)-2,40,44-trioxo-6,9,12,15,18,21,24,27,30,33,36-undecaoxa-3,39-diazatetratetracontyl)-1,4,7,10-tetraazacyclododecane-1,4,7-triyl)triacetic acid], the “release (%), induced MMAE release” value was 47 ± 0.3%.
In the case of Cc1nnc(-c2ncccn2)nn1 [Compound 4.1, 3-methyl-6-(pyrimidin-2-yl)-1,2,4,5-tetrazine], the “release (%), induced MMAE release” value is reported as 69 ± 0.0%.
In the case of CN(CCc1nnc(-c2ncccn2)nn1)C(=O)CCCC(=O)NC(CO)(CO)CO [Compound 4.15], the “release (%), induced MMAE release” value is reported as 55 ± 0.4%.
For Cc1nnc(-c2nccc(CNC(=O)OC(C)(C)C)n2)nn1 [Compound 4.17], the “release (%), induced MMAE release” value was 70 ± 0.1%.
Cc1nnc(-c2cnccn2)nn1 [Compound 4.18] was tested, and the “release (%), induced MMAE release” value was 55 ± 0.8%.
For Cc1nnc(-c2ccncn2)nn1 [Compound 4.19], the “release (%), induced MMAE release” value was 60 ± 0.1%.
With Cc1nnc(-c2nccnc2C)nn1 [Compound 4.20] the “release (%), induced MMAE release” value was 59 ± 0.3%.
For Cc1nnc(-c2nccc(C(=O)O)n2)nn1 [Compound 4.23], the “release (%), induced MMAE release” value was 69 ± 0.5%.
In the case of Cc1nnc(-c2nccc(CNC(=O)CN(CCN(CC(=O)O)CC(=O)O)CC(=O)O)n2)nn1 [Compound 4.26], the “release (%), induced MMAE release” value is reported as 59 ± 0.6%.
In the case of Cc1nnc(-c2nccc(CNC(=O)CCCC(=O)O)n2)nn1 [Compound 4.27], the “release (%), induced MMAE release” value is reported as 66 ± 0.5%.

Each compound was assayed on LS174T cells (assay: Cell proliferation (MTT) assay, LS174T). Settings: 72 h.
Type: cell-based, human
Experimental: as §1
In the case of CC[C@H](C)[C@@H]([C@@H](CC(=O)N1CCC[C@H]1[C@H](OC)[C@@H](C)C(=O)N[C@H](C)[C@@H](O)c1ccccc1)OC)N(C)C(=O)[C@@H](NC(=O)[C@@H](NC)C(C)C)C(C)C [MMAE, Monomethyl auristatin E] (H-[NMeV]V[Dil][Dolaproine]-X1), the EC50 is reported as 0.277 nM.
